The source of these data is ChEMBL document CHEMBL4483862, “Open-source discovery of chemical leads for next-generation chemoprotective antimalarials” (2018).

Each structure is given as a SMILES string.

This assay relates to Plasmodium berghei. The experiment in a line: Luciferase/luciferin-expressing antifolate-resistant parasites were used to infect a culture of HepG2 cells that were pre-incubated with compounds. Infected hepatocytes emit light due to the luciferase reaction. Assay results are presented as the percent inhibition of light emission compared to control. […]. It is filed as functional. Conditions: sporozoite; for IC90: read-out: LUCIFERASE INFECTION ASSAY - IC90.

Setting [1] is: read-out: LUCIFERASE INFECTION ASSAY - IC50.

As for `COc1ccccc1NC(=O)NCc1nc(-c2ccccc2)c[nH]1`, the IC90 (commonly the concentration needed for an effect of 90%) came out at 5.1 µM. The IC50 (commonly the concentration that gives 50% inhibition) (HEPG2TOX_HILL_SLOPE 5.47, HEPG2TOX_R_SQUARED 0.951, PBLUC_HILL_SLOPE 7.77, PBLUC_R_SQUARED 0.194, read-out: LUCIFERASE INFECTION ASSAY - IC50) turned out to be 3.84 µM.

In the case of `FC(F)(F)c1ccc(Nc2n[nH]c(=S)s2)cc1`, the IC90 is more than 11.9 µM. Further, for the setting “PBLUC_HILL_SLOPE 2.58, PBLUC_R_SQUARED 0.163, read-out: LUCIFERASE INFECTION ASSAY - IC50”, the half-inhibitory concentration (IC50) turned out to be 8.08 µM.

Take `FC(F)Sc1ccc(NC(=S)NC2CCCc3ccccc32)cc1` (centres undefined): the IC90 is more than 10 µM. For the same molecule, the IC50 under setting [1] is more than 10 µM.

For the molecule `CCC(Sc1ncnc2sc(C)c(C)c12)C(=O)Nc1cc(C)on1` (centres undefined), the IC90 was more than 10 µM. Also, the IC50 (PBLUC_HILL_SLOPE 4.56, PBLUC_R_SQUARED 0.361, read-out: LUCIFERASE INFECTION ASSAY - IC50) is 9.74 µM.

Turning to `COc1ccc(NC(=O)C(C)N2CCN(CCc3ccccc3)CC2)cc1Cl` (centres undefined), the IC90 is more than 10 µM. In addition, under setting [1], the half-maximal inhibitory concentration (IC50) is more than 10 µM.

Take `Cc1cc(C(C)(C)C)cc(C)c1S(=O)(=O)N1CC(=O)Nc2ccccc21`: the IC90 was more than 8.86 µM. Moreover, the half-inhibitory concentration (IC50) (PBLUC_HILL_SLOPE 6.12, PBLUC_R_SQUARED 0.785, read-out: LUCIFERASE INFECTION ASSAY - IC50) came to 6.84 µM.

For `COc1ccc(Nc2n[nH]c(NC(=O)Cc3c(Cl)cccc3Cl)c2C#N)cc1`, the IC90 was found to be 0.506 µM. Also, for the setting “FFLUC_HILL_SLOPE 14.5, FFLUC_R_SQUARED 0.631, HEPG2TOX_HILL_SLOPE 1.37, HEPG2TOX_R_SQUARED 0.939, PBLUC_HILL_SLOPE 1.1, PBLUC_R_SQUARED 0.834, read-out: LUCIFERASE INFECTION ASSAY - IC50”, the IC50 stood at 0.069 µM.

In the case of `N#Cc1cccc(NC(=O)c2cc(-c3cccnc3)nc3c2cnn3Cc2ccccc2Cl)c1`, the IC90 is more than 10 µM. The half-inhibitory concentration (IC50) under setting [1] was more than 10 µM.

`O=C(CN(Cc1ccccc1)S(=O)(=O)c1ccc(Cl)cc1)Nc1nnc(C(F)(F)F)s1`: the IC90 was found to be 3.96 µM. The IC50 (HEPG2TOX_HILL_SLOPE 2.23, HEPG2TOX_R_SQUARED 0.869, PBLUC_HILL_SLOPE 13.4, PBLUC_R_SQUARED 0.351, read-out: LUCIFERASE INFECTION ASSAY - IC50) amounted to 3.37 µM.

On to `CCCC/N=C1\SCC(c2c[nH]c3ccccc23)=NN1C`, for which the IC90 is more than 10 µM. In addition, the IC50 (HEPG2TOX_HILL_SLOPE 0.211, HEPG2TOX_R_SQUARED 0.832, read-out: LUCIFERASE INFECTION ASSAY - IC50) was more than 10 µM.

As for `COCC(C)n1c(C)cc(C(=O)CN2C(=O)c3ccccc3S2(=O)=O)c1C` (centres undefined), the IC90 is more than 10 µM. Where the note is “FFLUC_HILL_SLOPE 1.61, FFLUC_R_SQUARED 0.328, read-out: LUCIFERASE INFECTION ASSAY - IC50”, the IC50 was more than 10 µM.

Turning to `OC(/C(=N/Nc1ncnc2ccccc12)c1ccccc1)c1ccccc1` (centres undefined), the IC90 was found to be 6.04 µM. Also, where the note is “HEPG2TOX_HILL_SLOPE 1.63, HEPG2TOX_R_SQUARED 0.814, PBLUC_HILL_SLOPE 71.4, PBLUC_R_SQUARED 0.509, read-out: LUCIFERASE INFECTION ASSAY - IC50”, the 50% inhibitory concentration (IC50) came out at 5.86 µM.

With `Cc1nn(C)c2nc(-c3ccco3)cc(C(=O)Nc3ccnn3Cc3ccc(Cl)cc3Cl)c12`, the IC90 is more than 10 µM. The IC50 (FFLUC_HILL_SLOPE 11.1, FFLUC_R_SQUARED 0.205, read-out: LUCIFERASE INFECTION ASSAY - IC50) is more than 10 µM.

Consider `Cc1ccc(-n2[nH]c(C)c(C=Nc3ccc(OC(F)(F)F)cc3)c2=O)cc1`, for which the IC90 was more than 8.79 µM. In addition, the IC50 (PBLUC_HILL_SLOPE 2.73, PBLUC_R_SQUARED 0.732, read-out: LUCIFERASE INFECTION ASSAY - IC50) was determined as 4.57 µM.

As for `Cc1cc(-n2c(C)cc(C(=O)COc3ccccc3C#N)c2C)no1`, the 90% effect concentration (IC90) is more than 10 µM. Moreover, the IC50 (PBLUC_HILL_SLOPE 4.77, PBLUC_R_SQUARED 0.224, read-out: LUCIFERASE INFECTION ASSAY - IC50) was 7.56 µM.

Consider `N#C/C(=N\Nc1ccc(Cl)cc1)C(=O)c1ccc(Cl)cc1`, for which the IC90 was found to be 2.91 µM. For the same molecule, where the note is “HEPG2TOX_HILL_SLOPE 1.51, HEPG2TOX_R_SQUARED 0.876, PBLUC_HILL_SLOPE 2.05, PBLUC_R_SQUARED 0.674, read-out: LUCIFERASE INFECTION ASSAY - IC50”, the 50% inhibitory concentration (IC50) amounted to 0.996 µM.

With `COC(=O)/C=C/c1ccc(OCC(O)COc2ccc(C(C)(C)C)cc2)c(OC)c1` (centres undefined), the IC90 was more than 10 µM. For the same molecule, the IC50 under setting [1] was more than 10 µM.

Regarding `CC(C)(C)c1ccc(C2=NNC(=NCCCN3CCOCC3)SC2)cc1`, the IC90 was found to be 9.2 µM. Further, the IC50 (PBLUC_HILL_SLOPE 3.6, PBLUC_R_SQUARED 0.412, read-out: LUCIFERASE INFECTION ASSAY - IC50) turned out to be 5 µM.

With `Clc1ccc(-c2n[nH]cc2CNCC2CN(Cc3ccccc3)CCO2)cc1` (centres undefined), the IC90 was more than 10 µM. Further, the IC50 (PBLUC_HILL_SLOPE 12.9, PBLUC_R_SQUARED 0.0772, read-out: LUCIFERASE INFECTION ASSAY - IC50) came out at 9.51 µM.

On to `CC(Nc1ccc(OC(F)(F)F)cc1)C(=O)Nc1ccc(C#N)c(Cl)c1` (centres undefined), for which the IC90 was more than 10 µM. The IC50 under setting [1] stood at 8.9 µM.

As for `c1ccc(-c2csc3ncnc(Sc4nnc(C5COc6ccccc6O5)n4-c4ccccc4)c23)cc1` (centres undefined), the IC90 was more than 10 µM. Moreover, under setting [1], the half-inhibitory concentration (IC50) was more than 10 µM.

In the case of `CCOc1cc(C(=O)N/N=C/c2c(C)[nH]c3ccccc23)cc(OCC)c1OCC`, the IC90 is more than 10 µM. In addition, under “HEPG2TOX_HILL_SLOPE 8.54, 2.60, HEPG2TOX_R_SQUARED 0.0840, 0.979, PBLUC_HILL_SLOPE 9.58, PBLUC_R_SQUARED 0.194, read-out: LUCIFERASE INFECTION ASSAY - IC50”, the IC50 turned out to be 9.1 µM.

On to `CNC(=O)c1ccc(CN(CCOc2cccc(F)c2)C2CC2)cc1`, for which the IC90 is more than 10 µM. Further, the IC50 (PBLUC_HILL_SLOPE 4.75, PBLUC_R_SQUARED 0.3, read-out: LUCIFERASE INFECTION ASSAY - IC50) amounted to 6.72 µM.

For `O=C(COC(=O)c1cc2ccccc2cc1O)NC(c1ccccc1)c1ccccc1`, the IC90 was more than 10 µM. Also, under “FFLUC_HILL_SLOPE 2.56, FFLUC_R_SQUARED 0.57, PBLUC_HILL_SLOPE 2.71, PBLUC_R_SQUARED 0.551, read-out: LUCIFERASE INFECTION ASSAY - IC50”, the 50% inhibitory concentration (IC50) worked out at 4.79 µM.

For `COc1ccc(CN2C(=O)N(CC(C)C)C3(CCN(CCCc4ccccc4)CC3)C2=O)cc1`, the concentration for an effect of 90% (IC90) was 4.86 µM. Moreover, for the setting “HEPG2TOX_HILL_SLOPE 0.288, HEPG2TOX_R_SQUARED 0.281, PBLUC_HILL_SLOPE 3.96, PBLUC_R_SQUARED 0.368, read-out: LUCIFERASE INFECTION ASSAY - IC50”, the IC50 was 2.79 µM.

With `Cn1c(N)c(C(=O)COC(=O)c2ccccc2NCCC2=CCCCC2)c(=O)n(C)c1=O`, the IC90 is more than 10 µM. For the same molecule, under setting [1], the IC50 was more than 10 µM.

On to `Cn1c(NCc2ccccc2)nc2cnc(Nc3cccc(C(F)(F)F)c3)cc21`, for which the IC90 was more than 10 µM. Also, under “PBLUC_HILL_SLOPE 1.17, PBLUC_R_SQUARED 0.452, read-out: LUCIFERASE INFECTION ASSAY - IC50”, the IC50 turned out to be 4.08 µM.

As for `COc1ccc2ccccc2c1/C=N/Nc1ncc(C(F)(F)F)cc1Cl`, the IC90 was more than 10 µM. Moreover, the IC50 (HEPG2TOX_HILL_SLOPE 1.11, HEPG2TOX_R_SQUARED 0.987, read-out: LUCIFERASE INFECTION ASSAY - IC50) was more than 10 µM.

In the case of `Cc1sc2ncnc(Sc3nnnn3-c3ccc(Cl)cc3)c2c1C`, the IC90 is more than 10 µM. For the same molecule, the IC50 under setting [1] is more than 10 µM.

`Cc1ccc(Cn2ncc3c(C(=O)Nc4ccc(C)c(F)c4)cc(C)nc32)cc1`: the IC90 was more than 10 µM. Besides, the IC50 under setting [1] was more than 10 µM.

Regarding `COc1ccc(-c2ccc3ncc(-c4cccc(C(=O)NCCN(C)C)c4)n3n2)cc1OC`, the 90% effect concentration (IC90) is 0.309 µM. Besides, the IC50 (HEPG2TOX_HILL_SLOPE 0.532, HEPG2TOX_R_SQUARED 0.94, PBLUC_HILL_SLOPE 3.74, PBLUC_R_SQUARED 0.793, read-out: LUCIFERASE INFECTION ASSAY - IC50) stood at 0.172 µM.

Regarding `COc1ccccc1NC(=S)N/N=C(C)/C=C/C1C(C)=CCCC1(C)C` (centres undefined), the IC90 was more than 10 µM. For the same molecule, under setting [1], the IC50 is more than 10 µM.

In the case of `O=C(COc1ccccc1-c1ccccc1)Nc1nc(-c2ccccn2)cs1`, the IC90 amounted to 9.35 µM. For the same molecule, the IC50 (HEPG2TOX_HILL_SLOPE 2.53, HEPG2TOX_R_SQUARED 0.481, PBLUC_HILL_SLOPE 10.3, PBLUC_R_SQUARED 0.199, read-out: LUCIFERASE INFECTION ASSAY - IC50) stood at 7.56 µM.

For `O=c1c2ccccc2nc(Sc2ccc([N+](=O)[O-])c(C(F)(F)F)c2)n1-c1ccc(OC(F)F)cc1`, the IC90 was more than 10 µM. Also, the IC50 under setting [1] was more than 10 µM.

For the molecule `CCOC(=O)Cc1ccc(NC(=O)c2ccc(C(C)(C)C)cc2)cc1`, the concentration for an effect of 90% (IC90) was 2.02 µM. Moreover, for the setting “HEPG2TOX_HILL_SLOPE 1.28, HEPG2TOX_R_SQUARED 0.763, PBLUC_HILL_SLOPE 1.21, PBLUC_R_SQUARED 0.784, read-out: LUCIFERASE INFECTION ASSAY - IC50”, the IC50 came to 0.329 µM.

As for `O=C(OCCSc1ccc([N+](=O)[O-])c2nonc12)c1ccc(F)cc1`, the IC90 was more than 9.08 µM. Besides, under “FFLUC_HILL_SLOPE 1.52, FFLUC_R_SQUARED 0.911, HEPG2TOX_HILL_SLOPE 8.69, HEPG2TOX_R_SQUARED 0.77, PBLUC_HILL_SLOPE 16.5, PBLUC_R_SQUARED 0.0304, read-out: LUCIFERASE INFECTION ASSAY - IC50”, the IC50 is more than 9.08 µM.

Regarding `Cc1ccc(NC(=O)Nc2ccc3nc(-c4ccsc4)nn3c2)cc1`, the IC90 was more than 10 µM. The IC50 (PBLUC_HILL_SLOPE 7.59, PBLUC_R_SQUARED 0.413, read-out: LUCIFERASE INFECTION ASSAY - IC50) was 8.75 µM.
